# From patent US9474757B2, “Methods for treating cancer using TOR kinase inhibitor combination therapy” (Signal Pharmaceuticals, LLC, priority 2013, dated 2016)
# “Also recorded” adds a separate entry of the source.
# Tested on: WSU-DLCL2 xenograft
# Test: DLBCL xenograft model (WSU-DLCL2)
# Type: in vivo, SCID mice
# Settings: combination study
# Protocol: Severe combined immunodeficiency (SCID) mice were implanted with human DLBCL cell line (WSU-DLCL2) into the flank. Treatment of compounds started between Day 11 and Day 14 after cell inoculation. Randomized groups of mice (n=9 to 10/group) were treated with the single agents (Compound 1, Compound A or Compound AA) or the combination of Compound 1/Compound A, Compound A/Compound AA, or Compound 1/Compound AA. Compounds were administered orally on a once daily (Compound 1 and Compound A) or twice daily […] schedule for 21 days. The positive control consisted of CHOP therapy (combination of cyclophosphamide, doxorubicin, vincristine and prednisone). Compound 1 and Compound A were formulated in CMC-Tween (carboxymethylcellulose/Tween 80/deionized water). Compound AA was suspended in DSP (dimethylsulphoxide/solutol/phosphate buffered saline).
# Initial studies were conducted in order to determine the antitumor activity of Compound 1 and to identify a dose level for the combination studies. In the WSU-DLCL2 xenograft model, Compound 1 inhibited tumor growth in a dose-dependent fashion. […] In a subsequent combination study, Compound 1 was dosed at 10 mg/kg, once daily (QD). Compound A and Compound AA were dosed at 30 mg/kg (QD) and 50 mg/kg (BID), respectively.
structure (smiles),measurement,setting,value
"C=CC(=O)Nc1cccc(Nc2nc(Nc3ccc(OCCOC)cc3)ncc2F)c1 [Compound AA, N-(3-(5-fluoro-2-(4-(2-methoxyethoxy)phenylamino)pyrimidin-4-ylamino)phenyl)acrylamide]",antitumor activity,"Day 34, Compound 1 10 mg/kg QD, Compound A 30 mg/kg QD, Compound AA 50 mg/kg BID, combinations compared with single agent",No significant antitumor activity; also recorded: inactive
same,body weight loss,single agents or in combination,No significant body weight loss
